Results on 14 compounds are retold here after PubChem BioAssay (NCI).

Holding throughout (experiment): growth of human tumour cells (NCI), 48 h
In assay [1] the test system is SK-MEL-5 melanoma.
In assay [2] the test system is MDA-MB-231 breast.
Assay [3] deals with UO-31 renal.
Assay [4] deals with BT-549 breast.
The test system of assay [5] is SR leukemia.
The test system of assay [6] is HCC-2998 colon.
For assay [7], the system named is HS 578T breast.
Assay [8] deals with PC-3 prostate.
Assay [9] concerns SK-MEL-28 melanoma.
Assay [10] has as its system HCT-116 colon.
Assay [11] relates to OVCAR-3 ovarian.

The structures appear in SMILES notation.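 Results reflect a 48-hour exposure of cells in 96-well plates to compound at five concentrations. Definition used: TGI = concentration required for complete inhibition of growth.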

Regarding `FC(F)(F)c1ccccc1C1SCC2=Nc3ccccc3CN21` (centres undefined), the TGI in assay [1] is 27.9 µM; in assay [2] it was over 100 µM; in [3] it was 24.1 µM; in assay [4] it was 44.2 µM; in [5], over 100 µM; in assay [6], 27.6 µM. For the same compound, the TGI is 27.4 µM in [7], 27.9 µM in assay [8], 58.2 µM in assay [9] and 23.1 µM in assay [10].

Take `CS(=O)(=O)N1CC(CCl)c2ccc(NO)cc21` (centres undefined): the TGI in [1] was 28.2 µM; in assay [2] it was 30.5 µM; in [3], 16.5 µM; in [4], 25.1 µM; in assay [11] it was 40.7 µM; in assay [6], 28.5 µM. Further, the TGI in assay [7] was determined as 60 µM; in assay [8] it was 39.5 µM; in [9] it was 40.3 µM; in assay [10] it was 32 µM.

For `O=C1CN(c2ccccc2)Cc2nc(Cl)ccc2N1`, the TGI in assay [1], in [2], in assay [3], in [4], in assay [5] and in [6] was over 100 µM throughout. For the same compound, the TGI in assay [7], in assay [8], in assay [9] and in assay [10] was over 100 µM each time.

As to `CC1(C)OC(=O)C(C)(C)C(=O)O1`, the TGI in [1], in [2], in assay [3], in assay [4], in assay [5] and in assay [6] was over 100 µM each time. Besides, the TGI in [7], in assay [8], in assay [9] and in assay [10] was over 100 µM throughout.

Regarding `C#CC[C@@H]1C(=O)N(Cc2ccc(OC)cc2)[C@@H](C(C)C)C(=O)N1Cc1ccc(OC)cc1`, the TGI is 30.3 µM in assay [1]; over 100 µM in assay [2]; over 100 µM in assay [3]; 93.7 µM in assay [4]; over 100 µM in assay [11]; over 100 µM in [6]. The TGI in assay [7], in assay [8], in [9] and in assay [10] was over 100 µM each time.

Regarding `CCOC1OC(CO)C(O)CC1n1ccc(=O)[nH]c1=O` (centres undefined), the TGI in assay [1], in assay [2], in assay [3], in assay [4], in assay [11] and in [6] was over 100 µM each time. Further, the TGI in assay [7], in assay [8], in [9] and in assay [10] was over 100 µM each time.

With `O[C@]12C=C(c3nccc4c3[nH]c3ccccc34)[C@@H]3CCN(CCCC/C=C\CC1)C[C@@]31CC3/C=C\CCCCN3[C@H]12` (some centres undefined), the TGI in assay [1] turned out to be 0.34 µM; in assay [2], 1.84 µM; in [3] it was 0.463 µM; in assay [4], 10.4 µM; in [11], 1.55 µM; in assay [6], 0.936 µM. In addition, the TGI came out at 2.9 µM in [7], 12 µM in assay [8], 2.76 µM in [9] and 0.647 µM in [10].

With `FC(F)(F)c1ccc(C2ON=C(c3ccccc3)N2C23CC4CC(CC(C4)C2)C3)cc1` (centres undefined), the TGI in assay [1], in assay [2], in [4], in assay [11], in assay [5] and in [6] was over 10 µM throughout. The TGI in assay [7], in assay [8], in assay [9] and in assay [10] was over 10 µM each time.

Turning to `CCOC(=O)N/N=C(/N)c1cccc(Br)c1`, the TGI in [1], in assay [2], in [3], in assay [4], in assay [11] and in [5] was over 100 µM in each case. For the same compound, the TGI in assay [6], in assay [7], in assay [8] and in assay [10] was over 100 µM each time.

Consider `O=C/C(=C1/C=Cc2cc([N+](=O)[O-])ccc2S1)c1ccccc1`, for which the TGI in assay [1], in [2], in [3], in assay [11], in [5] and in assay [6] was over 100 µM in each case. In addition, the TGI in assay [7], in assay [8], in assay [9] and in assay [10] was over 100 µM each time.

For `CO/C(N)=C(\C#N)N=Cc1ccc2ccccc2c1`, the TGI in assay [1], in assay [2], in [3], in assay [4], in assay [11] and in assay [5] was over 100 µM throughout. In addition, the TGI in assay [7], in [8], in assay [9] and in assay [10] was over 100 µM each time.

Regarding `CCOC(=O)c1c[nH]c(C(=O)OCC)c1-c1cccn1-c1ccccc1`, the TGI in [1] is 28.4 µM; in assay [2], over 100 µM; in [3], 77.4 µM; in assay [4], over 100 µM; in [11] it was 37.4 µM; in assay [7], 59 µM. Besides, the TGI in assay [8] is 82.5 µM; in assay [9] it was 79.5 µM; in assay [10], 30.3 µM.

Consider `CCc1n[nH]c(=O)n1CCCCCCCCn1c(CC)n[nH]c1=O`, for which the TGI in assay [1], in assay [2], in [3], in [4], in [11] and in assay [5] was over 100 µM throughout. The TGI in assay [6], in assay [7], in [8] and in assay [10] was over 100 µM in each case.

On to `Nc1nc(Nc2ccc(Cl)c(Cl)c2)nc2nc[nH]c12`, for which the TGI in assay [1] is 27.7 µM; in assay [2], 31.3 µM; in assay [3] it was 21.3 µM; in [4] it was 25.8 µM; in assay [11], 27 µM; in assay [5], 33.2 µM. For the same compound, the TGI amounted to 27.9 µM in assay [6], 20.2 µM in assay [7], 41.2 µM in assay [8] and 34.1 µM in assay [10].
